Reference: patent US11213494B2 (priority 2016, dated 2022)

B1: BDNF: exogenous brain-derived neurotrophic factor, secreted protein, ligand of TrkB (protein, UniProt P23560 19-247, looked up)
Neurotrophic factor BDNF …: APMKEANIRGQGGLAYPGVRTHGTLESVNGPKAGSRGLTSLADTFEHVIEELLDEDQKVRPNEENNKDADLYTSRVMLSSQVPLEPPLLFLLEEYKNYLDAANMSMRVRRHSDPARRGELSVCDSISEWVTAADKKTAVDMSGGTVTVLEKVPVSKGQLKQYFYETKCNPMGYTKEGCRGIDKRHWNSQCRTTQSYVRALTMDSKKRIGWRFIRIDTSCVCTLTIKRGR

What was measured:
[1] = tested on: Mecp2 Het mice; type: in vivo; conditions: 50 mg/kg i.p. twice daily for 4 weeks
Protocol: (§1) Respiratory patterns were analyzed at 8, 10, and 12 weeks after birth in unrestrained mice using whole-body plethysmography as described previously. Measurements were taken from quiet breathing periods of at least 5 min total duration, and apneas were defined as pauses in breathing greater than two times the average breath duration calculated for each animal. LM22A-4 treatment. Wt and Het littermates were divided into 4 groups: Wt vehicle-treated (100 μl of 0.9% NaCl, i.p., b.i.d.), Wt drug treated (50 mg/kg LM22A-4 in 0.9% NaCl, i.p., b.i.d.), Het vehicle-treated (100 μl of 0.9% NaCl, i.p., b.i.d.), and Het drug-treated (50 mg/kg LM22A-4 in 0.9% NaCl, i.p., b.i.d.). Each mouse was treated from 8 to 13 weeks of age. Whole-body plethysmography was performed during week 12 and animals were subsequently killed and tissues harvested for TrkB Western blots and BDNF ELISA during week 13.
Comparison of respiratory parameters between Wt and Het animals in the initial phenotyping experiments were performed using unpaired Student's t test. Comparisons among Wt vehicle-treated, Wt drug-treated, Het vehicle-treated, and Het drug-treated groups in the LM22A-4 trials, including plethysmography and Western blots were performed using one-way ANOVA with post hoc Least Significant Difference test (LSD) for intergroup comparisons. Results were considered significant if the p-value was <0.05. Data are presented as the mean±SEM.

[2] = in vivo; design: species or system mice; conditions: Mecp2^tm1.1Jae heterozygous (Het), mouse, ip, 50 mg/kg, brain tissue concentration (corrected for blood contamination)
Protocol: The brain concentration of LM22A-4 (custom synthesized by Ricerca Biosciences, LLC) was evaluated in Het mice 1 h after a 50 mg/kg intraperitoneal dose using reverse-phase liquid chromatography with triple-quadrupole tandem mass spectrometric (LC-MS/MS) detection. […] Brainstem and forebrain samples were homogenized with a Virsonic 100 ultrasonic homogenizer and prepared for analysis using acetonitrile precipitation by combining one volume of sample with three volumes of acetonitrile. Samples were centrifuged and the resulting supernatant was sampled for analysis using a CTC Leap PAL autosampler (Leap Technologies) and two PerkinElmer series 200 micro pumps. Chromatography was performed at ambient temperature using a 50×2.0 mm inner diameter, 4 μm Synergi Polar-RP analytical column (Phenomenex). The aqueous mobile phase (A) was 4 mM ammonium formate, pH 3.5 and the organic mobile phase (B) was 10:90 (v/v) […] ammonium formate, pH 3.5/acetonitrile. The analyte was eluted with a gradient which changed linearly from 0 to 100% B in 3 min at a flow rate of 300 μl/min. The total run time was 4.5 min and the injection volume was 10 μl. The analyte was detected on a Sciex API 3000 triple-quadrupole mass spectrometer equipped with a TurbolonSpray interface in the positive electrospray ionization mode (Applied Biosystems/MDS). […]

[3] = tested on: TrkB; assay: Synaptic hyperexcitability in brainstem respiratory and autonomic circuits and apneic breathing in RTT mice; type: in vivo; conditions: for synaptic hyperexcitability in brainstem respiratory and autonomic circuits: acute
[4] = Body weight and tolerability during LM22A-4 treatment; type: in vivo, mice
Protocol: as §1

[5] = tested on: TrkB; assay: TrkB, AKT and ERK phosphorylation assays (Western blot) in pons and medulla; type: in vivo, mice; conditions: 50 mg/kg i.p. b.i.d. for 5 weeks
Protocol: The ratios of (1) phospho-TrkB^Y817/TrkB (full-length), phospho-ERK/ERK and phospho-AKT/AKT, (2) phospho-TrkB^Y817/actin, phospho-ERK/actin and phospho-AKT/actin, (3) TrkB (full-length)/actin, ERK/actin and AKT/actin and (4) TrkB (truncated)/actin were measured by Western blot using the ECL Chemiluminescence System (GE Healthcare). Site-specific rabbit monoclonal antiphospho-TrkB^Y817 antibody was obtained from Epitomics and rabbit polyclonal TrkB antibody was obtained from Millipore. Rabbit polyclonal ERK and AKT, mouse monoclonal phospho-ERK and phospho-AKT antibodies were obtained from Cell Signaling Technology. Tissues were homogenized in a lysis buffer (containing, in mM: 20 Tris, pH 8.0, 137 NaCl, 1% Igepal CA-630, 10% glycerol, 1 PMSF, 10 μg/ml aprotinin, 1 μg/ml leupeptin, 500 μM orthovanadate). Lysates were centrifuged at 14,000×g for 10 min, then the supernatant was collected and protein concentration was determined using the BCA Protein Assay Reagent (Pierce).
as §1

[6] = tested on: AMPA-receptors; assay: Whole-cell patch-clamp recordings of nTS second-order neurons in brainstem slices; type: cell-based, mice; conditions: 10 μM in the superfusate
Protocol: Horizontal brainstem slices were prepared from 3- and 5- to 7-week-old Mecp2 Null and Wt male mice. Animals were deeply anesthetized by inhalation of isoflurane and then decapitated. Brains were removed from the skull and placed in low Ca2+, ice-cold artificial CSF (ACSF) containing the following (in mM): 125 NaCl, 3 KCl, 1.2 NaH2PO4, 1 CaCl2, 1.2 MgSO4, 2 MgCl2, 25 NaHCO3, 10 D-glucose, and 0.4 L-ascorbic acid, equilibrated to pH 7.4 with 95% O2/5% CO2, for 2-5 min. […]
Slices were placed into the recording chamber, held in place with nylon-wired grid and superfused with recording ACSF at 30-32° C. at a flow rate of 4-5 ml/min. […] Evoked, spontaneous and miniature EPSCs (eEPSCs, sPSCs, mEPSCs) were recorded from cells meeting this criterion in the whole-cell voltage-clamp configuration at a holding potential of −60 mV. […] To compare intrinsic neuronal excitability between genotypes, action-potential properties and firing frequency in response to current injection (50 pA increments) were recorded in nComm neurons as well. […]
Spontaneous and evoked postsynaptic currents were analyzed with Clampfit and Microsoft Excel. In the analysis of eEPSCs, 20 sweeps were averaged with Clampfit and the resulting eEPSC amplitudes were measured and compared between genotypes at different stimulation intensities. […]

Molecule	percentage of apneic animals [1]	Te (expiratory time) compared with Wt ([1]; 12-week-old Het mice)	Ttot (total breath duration) compared with Wt ([1]; 12-week-old Het mice)	breathing frequency compared with Wt ([1]; 12-week-old Het mice)	respiratory function, drug- vs vehicle-treated Wt mice ([1]; Wt mice)	concentration at 1 h ([2]; brainstem)	concentration at 1 h ([2]; forebrain)	apneic breathing in vivo [3]	synaptic hyperexcitability in brainstem respiratory and autonomic circuits [3]	effect on body weight ([4]; Wt or Het mice, 50 mg/kg i.p. b.i.d. throughout the treatment period)	tolerability of daily treatment ([4]; heterozygous female Mecp2 mutant mice)	deficits in TrkB phosphorylation (p-TrkBY817/TrkB, p-TrkBY817/actin) ([5]; pons and medulla, 13-week-old Het mice)	decreases in p-AKT/AKT and p-AKT/actin ([5]; pons, Het mice)	effect of drug treatment on level of p-ERK/ERK ([5]; pons, Wt and Het mice)	levels of p-TrkB/TrkB and p-TrkB/actin vs wild-type controls ([5]; pons, drug-treated Het mice)	effect on sPSCs [6]	reduction of eEPSC amplitudes ([6]; n=10)
O=C(NCCO)c1cc(C(=O)NCCO)cc(C(=O)NCCO)c1 [LM22A-4, N,N′,N″Tris(2-hydroxyethyl)-1,3,5-benzenetricarboxamide]	unaffected	not significantly different	not significantly different	not significantly different	no significant differences	2.9 nM	4.1 nM	eliminate	acutely reverse	no effect	well tolerated	completely reversed	reversed	no significant effect	significantly higher		
N#Cc1cc2c(cc1[N+](=O)[O-])=NC(=O)C(=O)N=2 [6-cyano-7-nitroquinoxaline-2,3-dione]																completely abolished	92.2±1.4%
B1								eliminate	acutely reverse								
